Assays:
[1] = target: T1, Bromodomain-containing protein 9 (Homo sapiens) (UniProt Q9H8M2); assay: Inhibition of BRD9 (unknown origin) at 1 uM using H4 peptide as substrate preincubated for 15 mins followed by substrate addition and measured after 60 mins by Alphascreen assay relative to control
T1 sequence (whole entry): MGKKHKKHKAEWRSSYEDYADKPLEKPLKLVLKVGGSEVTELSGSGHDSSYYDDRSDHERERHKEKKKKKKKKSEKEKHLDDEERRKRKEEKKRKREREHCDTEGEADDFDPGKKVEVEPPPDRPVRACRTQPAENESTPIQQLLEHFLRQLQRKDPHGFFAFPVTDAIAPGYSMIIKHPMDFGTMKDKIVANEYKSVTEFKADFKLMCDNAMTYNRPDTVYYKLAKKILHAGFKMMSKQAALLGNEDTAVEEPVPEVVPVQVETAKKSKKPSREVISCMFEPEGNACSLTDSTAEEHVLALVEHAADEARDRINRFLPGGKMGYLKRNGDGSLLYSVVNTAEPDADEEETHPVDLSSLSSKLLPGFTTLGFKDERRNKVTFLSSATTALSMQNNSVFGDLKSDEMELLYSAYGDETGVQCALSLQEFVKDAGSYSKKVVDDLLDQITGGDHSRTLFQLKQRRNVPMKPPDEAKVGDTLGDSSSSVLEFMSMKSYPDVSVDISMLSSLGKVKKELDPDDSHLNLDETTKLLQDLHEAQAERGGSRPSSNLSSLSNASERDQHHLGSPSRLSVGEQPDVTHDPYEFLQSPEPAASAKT

[2] = target: T2, Bromodomain-containing protein 9 (Homo sapiens, UniProt Q9H8M2); assay: Inhibition of BRD9 (unknown origin) using H4 peptide as substrate preincubated for 15 mins followed by substrate addition and measured after 60 mins by Alphascreen assay
T2 sequence (Q9H8M2 whole entry): T1 sequence (whole entry)

EOL1 = assay: Antiproliferative activity against human EOL-1 cells; assay type: functional, cell-based
[3] = target: Bromodomain-containing protein 4 (Homo sapiens) (UniProt O60885); assay: Inhibition of recombinant human BRD4 (44 to 168) residues expressed in Escherichia coli at 1 uM using H4 peptide as substrate preincubated for 15 mins followed by substrate addition and measured after 60 mins by Alphascreen assay relative to control
A549 = assay: Antiproliferative activity against human A549 cells; assay type: functional, cell-based

inhibition [1] | IC50 [2] | inhibition [3] | IC50 (A549) | Compound | IC50 (EOL1)
18% | 2.33 µM | – | – | Cn1cc(-c2ccc(C(=O)N3CCOCC3)cc2)n2cncc2c1=O | –
86% | 0.93 µM | – | – | CCCn1cc(-c2ccc(C(=O)N3CCNCC3)c(Cl)c2)n2cncc2c1=O | –
16% | 3.01 µM | – | – | COc1cccc(-c2cn(C)c(=O)c3cncn23)c1 | –
52% | 0.84 µM | – | – | C/C=C/Cn1cc(-c2ccc(C(=O)N3CCN(S(C)(=O)=O)CC3)cc2Cl)n2cncc2c1=O | –
27% | 1.5 µM | – | – | Cn1cc(-c2ccc(C(=O)N3CCOCC3)c(Cl)c2)n2cncc2c1=O | –
94% | 0.103 µM | -5% | 6.63 µM | C/C=C/Cn1cc(-c2ccc(C(=O)N3CCN(S(C)(=O)=O)CC3)c(Cl)c2)n2cncc2c1=O | 2.29 µM
99% | 0.035 µM | -6% | 6.12 µM | C/C=C/Cn1cc(-c2ccc(C(=O)N3CCNCC3)c(Cl)c2)n2cncc2c1=O | 1.76 µM
80% | 0.557 µM | -3% | > 10 µM | C/C=C/Cn1cc(-c2ccc(C(=O)N3CCN(C)CC3)c(Cl)c2)n2cncc2c1=O | 7.03 µM
87 to 90% | – | – | – | CCOC(=O)Nc1cc(-c2ccc(C)c(NS(C)(=O)=O)c2)nn2c(C)nnc12 | –

The next lines start with the molecule.

Compound | inhibition [1] | IC50 [2] | inhibition [3] | IC50 (A549) | IC50 (EOL1)
C/C=C/Cn1cc(-c2ccc(C(=O)N3CCOCC3)cc2Cl)n2cncc2c1=O | 42% | 0.763 µM | – | – | –
C/C=C/Cn1cc(-c2ccc(C(=O)N3CCOCC3)c(Cl)c2)n2cncc2c1=O | 91% | 0.465 µM | -2% | > 10 µM | 8.17 µM
CCCCn1cc(-c2ccc(C(=O)N3CCOCC3)c(Cl)c2)n2cncc2c1=O | 48% | 0.827 µM | – | – | –
CCCCn1cc(-c2ccc(C(=O)NC3CCS(=O)(=O)CC3)c(Cl)c2)n2cncc2c1=O | 21% | – | – | – | –
C/C=C/Cn1cc(-c2ccc(C(=O)N3CCCC3)c(Cl)c2)n2cncc2c1=O | 87% | 0.438 µM | -4% | 8.23 µM | 5.82 µM
CCCn1cc(-c2ccc(C(=O)NC3CCS(=O)(=O)CC3)c(Cl)c2)n2cncc2c1=O | 23% | – | – | – | –
CCCCn1cc(-c2ccc(C(=O)N3CCNCC3)c(Cl)c2)n2cncc2c1=O | 68% | 0.73 µM | – | – | –
CCn1cc(-c2ccc(C(=O)N3CCOCC3)c(Cl)c2)n2cncc2c1=O | 5% | – | – | – | –
C/C=C/Cn1cc(-c2ccc(C(=O)N3CCOCC3)c(F)c2)n2cncc2c1=O | 38% | 0.967 µM | – | – | –
CCS(=O)(=O)Nc1ccc(Oc2ccc(F)cc2)c(-c2cn(C)c(=O)c3cncn23)c1 | – | – | 100% | – | –
Cn1cc(-c2ccccc2)n2cncc2c1=O | 7% | 7.21 µM | – | – | –
CCn1cc(-c2ccc(C(=O)N3CCNCC3)c(Cl)c2)n2cncc2c1=O | 83% | 0.802 µM | – | – | –
CCn1cc(-c2ccc(C(=O)NC3CCS(=O)(=O)CC3)c(Cl)c2)n2cncc2c1=O | 75% | 1.02 µM | – | – | –
C/C=C/Cn1cc(-c2ccc(C(=O)N3CCC(C(N)=O)CC3)c(Cl)c2)n2cncc2c1=O | 94% | 0.262 µM | -5% | 7.15 µM | 3.42 µM
Cn1cc(-c2cccc(C(F)(F)F)c2)n2cncc2c1=O | 6% | 7.41 µM | – | – | –
C/C=C/Cn1cc(-c2ccc(C(=O)N3CCN(S(C)(=O)=O)CC3)c(F)c2)n2cncc2c1=O | 71% | 0.652 µM | – | – | –
C/C=C/Cn1cc(-c2ccc(C(=O)NC3CCS(=O)(=O)CC3)c(Cl)c2)n2cncc2c1=O | 100% | 0.48 µM | -5% | > 10 µM | 5.34 µM

Source: ChEMBL document CHEMBL4480431, “Design, synthesis and biological evaluation of imidazo[1,5-a]pyrazin-8(7H)-one derivatives as BRD9 inhibitors” (Bioorg Med Chem, 2019)
